# Patent US8580794B2 (AbbVie Inc., priority 2009, dated 2013)
# Columns and labels:
# GST-Bc1-2 = GST-Bc1-2 (Homo sapiens, UniProt P10415); assay: Time Resolved-Fluorescence Resonance Energy Transfer (TR-FRET) Bcl-2 binding assay with F-Bak peptide probe; settings: GST-Bcl-2 1 nM, F-Bak probe 100 nM, Tb-anti-GST 1 nM; '<' = below limit of detection; read-out: TR-FRET Bcl-2 Binding Ki
# RS4;11 cells = assay: RS4;11 Cell Viability Assay (CellTiter Glo); assay type: cell-based; settings: Homo sapiens, RS4-11, 48 h, 50,000 cells per well, 10% human serum;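 also: RS4,11 acute lymphoblastic leukemia cells, viability as percent of untreated control cells, EC50 for loss of viable cells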
# Method: The acute lymphoblastic leukemia (ALL) cell line RS4;11 was used as the primary human cell line to assess the cellular activity of Bcl-2 selective agents in vitro and their efficacy in vivo.
# Cell cytotoxicity EC50 values were assessed using CellTiter Glo (Promega) according to the manufacturer's recommendations. The EC50 values were determined as a percentage of viable cells following treatment compared to the untreated control cells.
# Chain of GST-Bc1-2 (P10415 whole entry): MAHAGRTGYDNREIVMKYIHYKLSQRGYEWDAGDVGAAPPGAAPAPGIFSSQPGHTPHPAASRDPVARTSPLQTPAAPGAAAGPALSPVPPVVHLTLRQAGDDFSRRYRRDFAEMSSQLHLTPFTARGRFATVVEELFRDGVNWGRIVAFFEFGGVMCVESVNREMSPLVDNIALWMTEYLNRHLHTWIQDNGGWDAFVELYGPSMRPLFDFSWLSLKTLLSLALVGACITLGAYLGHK
Compound,Ki (GST-Bc1-2),EC50 (RS4;11 cells)
"CC1(C)CCC(CN2CCN(c3ccc(C(=O)NS(=O)(=O)c4ccc(NC(=O)N5CCC(C)(O)CC5)c(Cl)c4)c(Oc4cnc5[nH]ccc5c4)c3)CC2)=C(c2ccc(Cl)cc2)C1 [Example 394, N-(2-chloro-4-{[4-(4-{[2-(4-chlorophenyl)-4,4-dimethylcyclohex-1-en-1-yl]methyl}piperazin-1-yl)-2-(1H-pyrrolo[2,3-b]pyridin-5-yloxy)benzoyl]sulfamoyl}phenyl)-4-hydroxy-4-methylpiperidine-1-carboxamide]",0.132 nM,461 nM
"CC1(C)CCC(CN2CCN(c3ccc(C(=O)NS(=O)(=O)c4cnc(OCC5CCC6(CC5)CNC(=O)O6)c(Cl)c4)c(Oc4cnc5[nH]ccc5c4)c3)CC2)=C(c2ccc(Cl)cc2)C1 (centres unmarked) [Example 385, N-({5-chloro-6-[(2-oxo-1-oxa-3-azaspiro[4.5]dec-8-yl)methoxy]pyridin-3-yl}sulfonyl)-4-(4-{[2-(4-chlorophenyl)-4,4-dimethylcyclohex-1-en-1-yl]methyl}piperazin-1-yl)-2-(1H-pyrrolo[2,3-b]pyridin-5-yloxy)benzamide]",< 0.01 nM,133 nM
"CC1(C)CCC(CN2CCN(c3ccc(C(=O)NS(=O)(=O)c4cnc(OC[C@H]5CC[C@@](O)(CO)CC5)c(Cl)c4)c(Oc4cnc5[nH]ccc5c4)c3)CC2)=C(c2ccc(Cl)cc2)C1 [Example 401, N-[(5-chloro-6-{[trans-4-hydroxy-4-(hydroxymethyl)cyclohexyl]methoxy}pyridin-3-yl)sulfonyl]-4-(4-{[2-(4-chlorophenyl)-4,4-dimethylcyclohex-1-en-1-yl]methyl}piperazin-1-yl)-2-(1H-pyrrolo[2,3-b]pyridin-5-yloxy)benzamide]",< 0.01 nM,26.6 nM
"CC1(C)CCC(CN2CCN(c3ccc(C(=O)NS(=O)(=O)c4ccc(OCC5CCC(CO)(CO)CC5)c([N+](=O)[O-])c4)c(Oc4cnc5[nH]ccc5c4)c3)CC2)=C(c2ccc(Cl)cc2)C1 [Example 391, N-[(4-{[4,4-bis(hydroxymethyl)cyclohexyl]methoxy}-3-nitrophenyl)sulfonyl]-4-(4-{[2-(4-chlorophenyl)-4,4-dimethylcyclohex-1-en-1-yl]methyl}piperazin-1-yl)-2-(1H-pyrrolo[2,3-b]pyridin-5-yloxy)benzamide]",< 0.01 nM,8.41 nM
"O=C(NS(=O)(=O)c1ccc(NCC2CCOCC2)c([N+](=O)[O-])c1)c1ccc(N2CCN(CC3=C(c4ccc(Cl)cc4)CCCC3)CC2)cc1Oc1cnc2[nH]ccc2c1 [Example 403, 4-(4-{[2-(4-chlorophenyl)cyclohex-1-en-1-yl]methyl}piperazin-1-yl)-N-({3-nitro-4-[(tetrahydro-2H-pyran-4-ylmethyl)amino]phenyl}sulfonyl)-2-(1H-pyrrolo[2,3-b]pyridin-5-yloxy)benzamide]",< 0.01 nM,34 nM
"COC1CCN(C(=O)Nc2ccc(S(=O)(=O)NC(=O)c3ccc(N4CCN(CC5=C(c6ccc(Cl)cc6)CC(C)(C)CC5)CC4)cc3Oc3cnc4[nH]ccc4c3)cc2Cl)CC1 [Example 392, N-(2-chloro-4-{[4-(4-{[2-(4-chlorophenyl)-4,4-dimethylcyclohex-1-en-1-yl]methyl}piperazin-1-yl)-2-(1H-pyrrolo[2,3-b]pyridin-5-yloxy)benzoyl]sulfamoyl}phenyl)-4-methoxypiperidine-1-carboxamide]",0.171 nM,> 1000 nM
"CC1(C)CCC(CN2CCN(c3ccc(C(=O)NS(=O)(=O)c4ccc(NC(=O)N5CCC(C#N)CC5)c([N+](=O)[O-])c4)c(Oc4cnc5[nH]ccc5c4)c3)CC2)=C(c2ccc(Cl)cc2)C1 [Example 381, N-(4-{[4-(4-{[2-(4-chlorophenyl)-4,4-dimethylcyclohex-1-en-1-yl]methyl}piperazin-1-yl)-2-(1H-pyrrolo[2,3-b]pyridin-5-yloxy)benzoyl]sulfamoyl}-2-nitrophenyl)-4-cyanopiperidine-1-carboxamide]",< 0.01 nM,1.41 nM
"COCC1(O)CCC(COc2ncc(S(=O)(=O)NC(=O)c3ccc(N4CCN(CC5=C(c6ccc(Cl)cc6)CC(C)(C)CC5)CC4)cc3Oc3cnc4[nH]ccc4c3)cc2Cl)CC1 (stereo not drawn) [Example 399, N-[(5-chloro-6-{[trans-4-hydroxy-4-(methoxymethyl)cyclohexyl]methoxy}pyridin-3-yl)sulfonyl]-4-(4-{[2-(4-chlorophenyl)-4,4-dimethylcyclohex-1-en-1-yl]methyl}piperazin-1-yl)-2-(1H-pyrrolo[2,3-b]pyridin-5-yloxy)benzamide]",< 0.01 nM,127 nM
"[2H]C1([2H])N(CC2=C(c3ccc(Cl)cc3)CC(C)(C)CC2)C([2H])([2H])C([2H])([2H])N(c2ccc(C(=O)NS(=O)(=O)c3ccc(NCC4CCOCC4)c([N+](=O)[O-])c3)c(Oc3cnc4[nH]ccc4c3)c2)C1([2H])[2H] [Example 369, 4-[4-{[2-(4-chlorophenyl)-4,4-dimethylcyclohex-1-en-1-yl]methyl}(2H8)piperazin-1-yl]-N-({3-nitro-4-[(tetrahydro-2H-pyran-4-ylmethyl)amino]phenyl}sulfonyl)-2-(1H-pyrrolo[2,3-b]pyridin-5-yloxy)benzamide]",,8 nM
"CC1(C)CCC(CN2CCN(c3ccc(C(=O)NS(=O)(=O)c4ccc(OCC5CCC(C)(O)CC5)c(Cl)c4)c(Oc4cnc5[nH]ccc5c4)c3)CC2)=C(c2ccc(Cl)cc2)C1 (stereo not drawn) [Example 362, N-({3-chloro-4-[(trans-4-hydroxy-4-methylcyclohexyl)methoxy]phenyl}sulfonyl)-4-(4-{[2-(4-chlorophenyl)-4,4-dimethylcyclohex-1-en-1-yl]methyl}piperazin-1-yl)-2-(1H-pyrrolo[2,3-b]pyridin-5-yloxy)benzamide]",,31.7 nM
"CC1(C)CCC(CN2CCN(c3ccc(C(=O)NS(=O)(=O)c4ccc(OC[C@H]5CC[C@H](O)CC5)c([N+](=O)[O-])c4)c(Oc4cnc5[nH]ccc5c4)c3)CC2)=C(c2ccc(Cl)cc2)C1 [Example 196, Trans-4-(4-{[2-(4-chlorophenyl)-4,4-dimethylcyclohex-1-en-1-yl]methyl}piperazin-1-yl)-N-({4-[(4-hydroxycyclohexyl)methoxy]-3-nitrophenyl}sulfonyl)-2-(1H-pyrrolo[2,3-b]pyridin-5-yloxy)benzamide]",,1.72 nM
"CC1(O)CCC(COc2ncc(S(=O)(=O)NC(=O)c3ccc(N4CCN(CC5=C(c6ccc(Cl)cc6)CC6(CC5)CC6)CC4)cc3Oc3cnc4[nH]ccc4c3)cc2Cl)CC1 (stereo not drawn) [Example 341, N-({5-chloro-6-[(trans-4-hydroxy-4-methylcyclohexyl)methoxy]pyridin-3-yl}sulfonyl)-4-(4-{[5-(4-chlorophenyl)spiro[2.5]oct-5-en-6-yl]methyl}piperazin-1-yl)-2-(1H-pyrrolo[2,3-b]pyridin-5-yloxy)benzamide]",,31.7 nM
"CC1(C)CCC(CN2CCN(c3ccc(C(=O)NS(=O)(=O)c4ccc(NCC5CCC(C)(O)CC5)c([N+](=O)[O-])c4)c(Oc4cnc5[nH]ccc5c4)c3)CC2)=C(c2ccc(Cl)cc2)C1 (stereo not drawn) [Example 337, 4-(4-{[2-(4-chlorophenyl)-4,4-dimethylcyclohex-1-en-1-yl]methyl}piperazin-1-yl)-N-[(4-{[(trans-4-hydroxy-4-methylcyclohexyl)methyl]amino}-3-nitrophenyl)sulfonyl]-2-(1H-pyrrolo[2,3-b]pyridin-5-yloxy)benzamide]",,1.76 nM
"CC1(C)CCC(CN2CCN(c3ccc(C(=O)NS(=O)(=O)c4ccc(NC5CCN(C6CCC6)CC5)c([N+](=O)[O-])c4)c(Oc4cnc5[nH]ccc5c4)c3)CC2)=C(c2ccc(Cl)cc2)C1 [Example 140, 4-(4-{[2-(4-chlorophenyl)-4,4-dimethylcyclohex-1-en-1-yl]methyl}piperazin-1-yl)-N-({4-[(1-cyclobutylpiperidin-4-yl)amino]-3-nitrophenyl}sulfonyl)-2-(1H-pyrrolo[2,3-b]pyridin-5-yloxy)benzamide]",< 0.01 nM,
"CC1(C)CCC(CN2CCN(c3ccc(C(=O)NS(=O)(=O)c4ccc(OCC5(F)CCOCC5)c(C#N)c4)c(Oc4cnc5[nH]ccc5c4)c3)CC2)=C(c2ccc(Cl)cc2)C1 [Example 299, 4-(4-{[2-(4-chlorophenyl)-4,4-dimethylcyclohex-1-en-1-yl]methyl}piperazin-1-yl)-N-({3-cyano-4-[(4-fluorotetrahydro-2H-pyran-4-yl)methoxy]phenyl}sulfonyl)-2-(1H-pyrrolo[2,3-b]pyridin-5-yloxy)benzamide]",0.039 nM,
"O=C(NS(=O)(=O)c1ccc(OCC2(F)CCOCC2)c(Cl)c1)c1ccc(N2CCN(CC3=C(c4ccc(Cl)cc4)CCC4(CCN(C5COC5)CC4)C3)CC2)cc1Oc1cnc2[nH]ccc2c1 [Example 325, N-({3-chloro-4-[(4-fluorotetrahydro-2H-pyran-4-yl)methoxy]phenyl}sulfonyl)-4-(4-{[9-(4-chlorophenyl)-3-(oxetan-3-yl)-3-azaspiro[5.5]undec-8-en-8-yl]methyl}piperazin-1-yl)-2-(1H-pyrrolo[2,3-b]pyridin-5-yloxy)benzamide]",< 0.01 nM,
"CCN1CCOCC1COc1ccc(S(=O)(=O)NC(=O)c2ccc(N3CCN(CC4=C(c5ccc(Cl)cc5)CC(C)(C)CC4)CC3)cc2Oc2cnc3[nH]ccc3c2)cc1[N+](=O)[O-] (centres unmarked) [Example 103, 4-(4-{[2-(4-chlorophenyl)-4,4-dimethylcyclohex-1-en-1-yl]methyl}piperazin-1-yl)-N-({4-[(4-ethylmorpholin-3-yl)methoxy]-3-nitrophenyl}sulfonyl)-2-(1H-pyrrolo[2,3-b]pyridin-5-yloxy)benzamide]",< 0.01 nM,
"CC1(C)CCC(CN2CCN(c3ccc(C(=O)NS(=O)(=O)c4ccc(NCC5CCN(C6CC6)CC5)c([N+](=O)[O-])c4)c(Oc4cnc5[nH]ccc5c4)c3)CC2)=C(c2ccc(Cl)cc2)C1 [Example 164, 4-(4-{[2-(4-chlorophenyl)-4,4-dimethylcyclohex-1-en-1-yl]methyl}piperazin-1-yl)-N-[(4-{[(1-cyclopropylpiperidin-4-yl)methyl]amino}-3-nitrophenyl)sulfonyl]-2-(1H-pyrrolo[2,3-b]pyridin-5-yloxy)benzamide]",< 0.01 nM,
